# Test results taken from article PMC7206119, “RIP1 inhibition blocks inflammatory diseases but not tumor growth or metastases” (Cell Death and Differentiation, 2019).
# Tests used:
# Assay in all cases: biochemical
# Set-up in all cases: DiscoverX kinase panel, active-site competition binding (KINOMEscan type), percent of control at one concentration
# Conditions in all cases: competition binding, percent of control
# [1] = target: T1, ABL1(F317L)-phosphorylated (Homo sapiens, UniProt P00519, F317L)
# T1 construct: phosphorylated
# ACVRL1 = ACVRL1 (Homo sapiens, UniProt P37023)
# ASK2 = target: T2, ASK2 (Homo sapiens, UniProt O95382)
# T2 construct: gene MAP3K6
# CAMK1G = CAMK1G (Homo sapiens, UniProt Q96NX5)
# Sequence of CAMK1G (Q96NX5 whole entry): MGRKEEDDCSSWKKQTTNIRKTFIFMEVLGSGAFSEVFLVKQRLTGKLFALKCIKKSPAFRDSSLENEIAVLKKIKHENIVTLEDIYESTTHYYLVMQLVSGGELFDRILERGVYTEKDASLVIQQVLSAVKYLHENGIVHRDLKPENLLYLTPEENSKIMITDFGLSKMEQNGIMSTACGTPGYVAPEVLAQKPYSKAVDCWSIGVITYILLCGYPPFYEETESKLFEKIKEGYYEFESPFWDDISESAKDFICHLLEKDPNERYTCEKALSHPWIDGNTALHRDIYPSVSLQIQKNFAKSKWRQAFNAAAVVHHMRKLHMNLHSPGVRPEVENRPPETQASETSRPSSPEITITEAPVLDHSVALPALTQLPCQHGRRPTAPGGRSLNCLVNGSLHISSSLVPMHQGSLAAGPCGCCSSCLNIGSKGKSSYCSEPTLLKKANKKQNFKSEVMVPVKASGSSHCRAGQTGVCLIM
# CDKL2 = CDKL2 (Homo sapiens, UniProt Q92772)
# CSNK1A1 = CSNK1A1 (Homo sapiens, UniProt P48729)
# CSNK1A1L = CSNK1A1L (Homo sapiens, UniProt Q8N752)
# EGFR(L747-T751del,Sins) = EGFR(L747-T751del,Sins) (Homo sapiens, UniProt P00533, DEL747-750/T751S)
# FLT3 = FLT3 (Homo sapiens, UniProt P36888)
# FLT3-autoinhibited = FLT3-autoinhibited (Homo sapiens, UniProt P36888)
# HUNK = HUNK (Homo sapiens, UniProt P57058)
# [2] = target: T3, JAK1(JH1domain-catalytic) (Homo sapiens, UniProt P23458)
# T3 construct: JH1domain-catalytic
# T3 sequence (P23458 whole entry): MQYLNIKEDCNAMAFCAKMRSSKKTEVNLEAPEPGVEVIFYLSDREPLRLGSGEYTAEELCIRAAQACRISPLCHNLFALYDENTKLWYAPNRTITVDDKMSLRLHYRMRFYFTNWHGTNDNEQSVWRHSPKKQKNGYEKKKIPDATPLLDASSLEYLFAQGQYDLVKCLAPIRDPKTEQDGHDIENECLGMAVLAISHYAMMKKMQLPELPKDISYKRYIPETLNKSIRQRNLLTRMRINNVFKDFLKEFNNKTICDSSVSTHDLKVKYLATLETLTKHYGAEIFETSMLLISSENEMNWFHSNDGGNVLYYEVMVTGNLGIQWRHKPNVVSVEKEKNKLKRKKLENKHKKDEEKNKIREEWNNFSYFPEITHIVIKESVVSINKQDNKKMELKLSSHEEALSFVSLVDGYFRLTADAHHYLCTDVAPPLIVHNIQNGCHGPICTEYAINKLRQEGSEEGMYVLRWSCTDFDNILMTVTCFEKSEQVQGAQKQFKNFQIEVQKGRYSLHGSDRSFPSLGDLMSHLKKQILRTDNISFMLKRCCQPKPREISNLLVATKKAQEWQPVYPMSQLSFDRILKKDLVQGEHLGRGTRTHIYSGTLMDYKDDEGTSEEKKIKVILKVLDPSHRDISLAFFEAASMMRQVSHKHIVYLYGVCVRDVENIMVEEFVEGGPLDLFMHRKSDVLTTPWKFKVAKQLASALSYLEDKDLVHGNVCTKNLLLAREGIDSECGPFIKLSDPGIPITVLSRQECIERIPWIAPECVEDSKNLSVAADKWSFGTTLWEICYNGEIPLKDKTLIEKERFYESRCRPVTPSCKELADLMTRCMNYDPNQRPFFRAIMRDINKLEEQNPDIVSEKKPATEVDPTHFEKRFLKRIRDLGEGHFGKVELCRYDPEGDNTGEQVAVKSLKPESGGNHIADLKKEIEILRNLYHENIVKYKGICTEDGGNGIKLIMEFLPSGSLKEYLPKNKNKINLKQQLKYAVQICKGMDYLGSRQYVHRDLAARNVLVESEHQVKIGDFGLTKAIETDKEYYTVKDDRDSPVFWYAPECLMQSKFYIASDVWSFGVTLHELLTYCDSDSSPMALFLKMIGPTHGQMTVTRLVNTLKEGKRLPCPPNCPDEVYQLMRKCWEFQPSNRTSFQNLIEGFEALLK
# [3] = target: T4, JAK3(JH1domain-catalytic) (Homo sapiens, UniProt P52333)
# T4 construct: JH1domain-catalytic
# MARK1 = MARK1 (Homo sapiens, UniProt Q9P0L2)
# Sequence of MARK1 (Q9P0L2 whole entry): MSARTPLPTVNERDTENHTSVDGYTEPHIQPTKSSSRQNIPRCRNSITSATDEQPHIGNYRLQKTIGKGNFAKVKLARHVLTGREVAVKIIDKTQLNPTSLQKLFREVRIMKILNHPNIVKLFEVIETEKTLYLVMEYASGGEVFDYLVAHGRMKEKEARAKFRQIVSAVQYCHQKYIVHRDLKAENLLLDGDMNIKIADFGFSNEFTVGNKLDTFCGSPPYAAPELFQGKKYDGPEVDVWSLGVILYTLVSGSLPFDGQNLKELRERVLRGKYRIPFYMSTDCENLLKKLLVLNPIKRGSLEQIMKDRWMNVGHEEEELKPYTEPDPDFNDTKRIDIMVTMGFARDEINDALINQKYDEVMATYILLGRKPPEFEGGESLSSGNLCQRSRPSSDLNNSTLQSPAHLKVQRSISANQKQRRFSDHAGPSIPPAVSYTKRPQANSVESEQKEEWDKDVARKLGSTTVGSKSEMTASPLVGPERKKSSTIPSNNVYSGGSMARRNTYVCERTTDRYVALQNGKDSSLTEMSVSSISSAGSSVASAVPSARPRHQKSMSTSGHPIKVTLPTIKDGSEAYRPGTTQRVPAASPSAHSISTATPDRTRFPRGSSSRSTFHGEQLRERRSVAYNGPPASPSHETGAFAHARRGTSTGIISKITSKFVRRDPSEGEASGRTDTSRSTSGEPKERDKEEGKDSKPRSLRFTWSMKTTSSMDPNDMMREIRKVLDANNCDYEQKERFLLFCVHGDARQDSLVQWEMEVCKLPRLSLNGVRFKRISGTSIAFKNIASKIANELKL
# MEK2 = target: T5, MEK2 (Homo sapiens, UniProt P36507)
# T5 construct: gene MAP2K2
# NEK5 = NEK5 (Homo sapiens, UniProt Q6P3R8)
# Sequence of NEK5 (Q6P3R8 whole entry): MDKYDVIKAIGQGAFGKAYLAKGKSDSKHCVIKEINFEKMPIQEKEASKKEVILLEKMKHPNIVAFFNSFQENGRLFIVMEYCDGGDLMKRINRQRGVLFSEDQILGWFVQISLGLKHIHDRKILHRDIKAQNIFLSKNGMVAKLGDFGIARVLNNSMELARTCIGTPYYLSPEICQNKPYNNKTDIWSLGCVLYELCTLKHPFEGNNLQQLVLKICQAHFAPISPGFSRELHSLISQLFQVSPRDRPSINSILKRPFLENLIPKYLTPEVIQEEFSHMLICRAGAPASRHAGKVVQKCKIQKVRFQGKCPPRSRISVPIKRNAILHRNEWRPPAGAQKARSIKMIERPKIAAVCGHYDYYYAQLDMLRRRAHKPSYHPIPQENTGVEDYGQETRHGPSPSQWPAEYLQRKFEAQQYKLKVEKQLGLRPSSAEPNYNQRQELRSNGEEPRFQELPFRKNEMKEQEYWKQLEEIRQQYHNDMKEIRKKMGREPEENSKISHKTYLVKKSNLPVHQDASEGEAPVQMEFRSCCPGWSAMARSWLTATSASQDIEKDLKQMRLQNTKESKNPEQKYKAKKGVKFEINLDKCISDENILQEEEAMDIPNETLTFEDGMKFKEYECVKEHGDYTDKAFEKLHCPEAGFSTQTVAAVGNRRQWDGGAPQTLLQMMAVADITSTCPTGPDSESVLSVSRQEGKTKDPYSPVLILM
# PIK3CA(E542K) = PIK3CA(E542K) (Homo sapiens, UniProt P42336, E542K)
# Sequence of PIK3CA(E542K) (P42336 whole entry E542K): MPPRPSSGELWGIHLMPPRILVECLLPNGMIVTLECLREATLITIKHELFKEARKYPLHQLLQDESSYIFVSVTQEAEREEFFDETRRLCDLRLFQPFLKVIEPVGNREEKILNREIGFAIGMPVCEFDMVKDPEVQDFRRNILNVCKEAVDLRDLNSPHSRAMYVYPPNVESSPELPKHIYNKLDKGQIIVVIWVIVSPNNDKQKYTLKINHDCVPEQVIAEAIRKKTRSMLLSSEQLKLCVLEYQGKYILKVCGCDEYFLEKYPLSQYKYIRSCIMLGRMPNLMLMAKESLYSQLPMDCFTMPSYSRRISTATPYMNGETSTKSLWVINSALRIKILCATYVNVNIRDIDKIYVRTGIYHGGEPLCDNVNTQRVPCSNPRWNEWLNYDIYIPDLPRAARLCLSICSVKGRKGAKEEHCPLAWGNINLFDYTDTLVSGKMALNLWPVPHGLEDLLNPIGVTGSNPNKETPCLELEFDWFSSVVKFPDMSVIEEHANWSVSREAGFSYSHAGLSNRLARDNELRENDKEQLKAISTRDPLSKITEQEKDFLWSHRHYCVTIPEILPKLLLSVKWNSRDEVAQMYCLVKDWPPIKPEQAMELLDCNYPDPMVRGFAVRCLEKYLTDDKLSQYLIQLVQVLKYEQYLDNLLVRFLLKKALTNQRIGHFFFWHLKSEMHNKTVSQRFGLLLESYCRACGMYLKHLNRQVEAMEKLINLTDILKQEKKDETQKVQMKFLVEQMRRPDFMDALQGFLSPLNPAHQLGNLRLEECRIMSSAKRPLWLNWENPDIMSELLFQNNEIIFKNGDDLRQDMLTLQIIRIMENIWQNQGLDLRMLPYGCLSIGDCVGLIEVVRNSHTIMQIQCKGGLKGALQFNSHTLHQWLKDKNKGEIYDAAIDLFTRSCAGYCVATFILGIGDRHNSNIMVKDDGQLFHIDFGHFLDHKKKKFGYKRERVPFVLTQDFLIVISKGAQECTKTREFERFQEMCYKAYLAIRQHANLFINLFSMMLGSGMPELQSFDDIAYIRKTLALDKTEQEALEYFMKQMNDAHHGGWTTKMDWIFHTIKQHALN
# PRKCQ = PRKCQ (Homo sapiens, UniProt Q04759)
# Sequence of PRKCQ (Q04759 whole entry): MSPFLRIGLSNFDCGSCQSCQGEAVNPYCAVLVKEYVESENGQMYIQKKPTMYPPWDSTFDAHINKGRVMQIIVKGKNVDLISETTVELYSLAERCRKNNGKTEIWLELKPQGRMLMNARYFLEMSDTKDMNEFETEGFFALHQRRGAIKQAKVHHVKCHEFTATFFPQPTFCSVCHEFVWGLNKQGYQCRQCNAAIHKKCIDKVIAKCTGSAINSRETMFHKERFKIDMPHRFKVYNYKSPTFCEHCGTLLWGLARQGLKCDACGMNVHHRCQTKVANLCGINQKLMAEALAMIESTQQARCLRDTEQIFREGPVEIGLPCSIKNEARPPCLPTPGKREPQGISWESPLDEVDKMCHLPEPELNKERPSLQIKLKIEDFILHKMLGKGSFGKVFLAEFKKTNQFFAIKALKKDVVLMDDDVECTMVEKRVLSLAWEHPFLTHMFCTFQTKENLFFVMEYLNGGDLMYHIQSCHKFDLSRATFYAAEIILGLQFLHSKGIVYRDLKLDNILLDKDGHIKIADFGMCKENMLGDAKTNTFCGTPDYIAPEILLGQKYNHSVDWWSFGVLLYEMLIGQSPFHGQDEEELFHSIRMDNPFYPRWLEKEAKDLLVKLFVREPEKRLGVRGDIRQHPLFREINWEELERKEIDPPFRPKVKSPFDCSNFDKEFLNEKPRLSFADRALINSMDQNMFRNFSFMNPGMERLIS
# TBK1 = TBK1 (Homo sapiens, UniProt Q9UHD2)
# TNIK = TNIK (Homo sapiens, UniProt Q9UKE5)
# TRPM6 = TRPM6 (Homo sapiens, UniProt Q9BX84)
structure (smiles),measurement,setting,value
"COc1cc2c(cn1)N(C)C(=O)[C@@H](NC(=O)c1nc3n(n1)[C@H](c1ccccc1)CC3)CC2 [GNE684, (S)-N-((S)-7-methoxy-1-methyl-2-oxo-2,3,4,5-tetrahydro-1H-pyrido[3,4-b]azepin-3-yl)-5-phenyl-6,7-dihydro-5H-pyrrolo[1,2-b][1,2,4]triazole-2-carboxamide]",remaining binding at 10 µM,[1],91%
same,remaining binding at 10 µM,ACVRL1,87%
same,remaining binding at 10 µM,ASK2,98%
same,remaining binding at 10 µM,CAMK1G,100%
same,remaining binding at 10 µM,CDKL2,95%
same,remaining binding at 10 µM,CSNK1A1,87%
same,remaining binding at 10 µM,CSNK1A1L,100%
same,remaining binding at 10 µM,"EGFR(L747-T751del,Sins)",84%
same,remaining binding at 10 µM,FLT3,87%
same,remaining binding at 10 µM,FLT3-autoinhibited,100%
same,remaining binding at 10 µM,HUNK,94%
same,remaining binding at 10 µM,[2],100%
same,remaining binding at 10 µM,[3],97%
same,remaining binding at 10 µM,MARK1,69%
same,remaining binding at 10 µM,MEK2,80%
same,remaining binding at 10 µM,NEK5,100%
same,remaining binding at 10 µM,PIK3CA(E542K),41%
same,remaining binding at 10 µM,PRKCQ,100%
same,remaining binding at 10 µM,TBK1,94%
same,remaining binding at 10 µM,TNIK,67%
same,remaining binding at 10 µM,TRPM6,87%
